Like-named read-outs stand apart in the source and are kept apart here. Bridge positions count the residues as written; N and C are the ends. Square brackets hold non-standard residues; d marks the D form. Peptide text beside a SMILES is read from it. * marks the point of attachment. Ileψ(thiazoline)Cys = CC[C@H](C)[C@H](N)C1=N[C@H](C(=O)*)CS1; dOrn = NCCC[C@@H](N)C(=O)O
How the values were obtained:
[1] = tested on: Pseudomonas aeruginosa, and Staphylococcus aureus; experiment: Bacterial suspension assay, vegetative bacteria; assay type: cell-based; conditions: all time points (20 seconds, 5 minutes, 20 minutes) at 20° C.; Bacitracin 33 Units/ml
[2] = tested on: spore suspension of B. atropheus; experiment: Bacterial suspension assay, spores; assay type: cell-based; conditions: 5, and 20 minute time points at 20° C.; Bacitracin 33 Units/ml
Experimental: Dermacyn is a ready to use product, therefore performing dilutions during testing was not required.
A purchased spore suspension of B. atropheus at 2.5×10^7 /ml was used for testing. In addition fresh suspensions of Pseudomonas aeruginosa, and Staphylococcus aureus were prepared and measured using a spectrophotometer to ensure the titer was acceptable
Nine microliters of test substance was added to 100 ul of microbe suspension. The test mixture was held at 20° C. for the contact times of 20 seconds, 5 minutes, and 20 minutes. 1.0 ml of the test mixture (entire mixture) was added to 9,0 ml of neutralizer for 20 minutes (this is the original neutralization tube or ONT) 1.0 ml of the neutralized test mixture was plated on Tryptic Soy Agar in duplicate for the 5 minute and 20 minute contact times. Additional dilutions and spread plates were used for the 20 second time point, to achieve countable plates.
All plates were incubated at 30° C.-35° C. for a total of 3 days and were evaluated after each day of incubation.

[3] = tested on: human diploid fibroblasts (HDFs); assay type: cell-based; conditions: 880 mM
Experimental: HP is known to be toxic to eukaryotic cells, increasing apoptosis and necrosis and reducing cellular viability. […] HDF cultures were obtained from three different foreskins, which were pooled and cryopreserved together for the purpose of this study. Only diploid cells were used for all experiments. […] Simultaneous analyses of these parameters were performed in the same cell populations by flow cytometry using: […] B) Annexin V-FITC; and C) Propidium iodide. FIG. 4A-4C disclose percentage values expressed as mean±SD (n=3).

[4] = tested on: human diploid fibroblasts (HDFs); conditions: 1 month, 5 μM

| Structure (SMILES) | log reduction of the vegetative bacteria [1] | log reduction of spores [2] | Cell viability ([3]; 5 min) | apoptosis (Annexin-V) ([3]; 5 min) | necrosis (cells incorporating propidium iodide) ([3]; 5 min) | Cell viability ([3]; 30 min) | apoptosis (Annexin-V) ([3]; 30 min) | necrosis (cells incorporating propidium iodide) ([3]; 30 min) | cells with SA-β-Gal expression [4] | RNA degradation (human cell cultures) |
| --- | --- | --- | --- | --- | --- | --- | --- | --- | --- | --- |
| CC[C@H](C)[C@H](N)C1=N[C@H](C(=O)N[C@@H](CC(C)C)C(=O)N[C@H](CCC(=O)O)C(=O)N[C@H](C(=O)N[C@H]2CCCCNC(=O)[C@H](CC(N)=O)NC(=O)[C@@H](CC(=O)O)NC(=O)[C@H](Cc3cnc[nH]3)NC(=O)[C@@H](Cc3ccccc3)NC(=O)[C@H]([C@@H](C)CC)NC(=O)[C@@H](CCCN)NC2=O)[C@@H](C)CC)CS1 [Bacitracin] ({Ileψ(thiazoline)Cys}-L[dE]IK[dOrn]I[dF]H[dD]N; lactam 4-C) | no evidence of lowering the bacterial or spore populations | no evidence of lowering the bacterial or spore populations | – | – | – | – | – | – | – | – |
| OO [HP, hydrogen peroxide] | – | – | 55% | 15% | 20% | 5% | 20% | 75% | 86% | significant RNA degradation |
